Where “and” joins values, the source holds several entries; their conditions need not be identical. Equal values may be shown once.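 Growth conditions: 96-well plates. Treatment: test compound, 48 hours, 5 concentrations. Analysis: linear interpolation between bracketing concentrations; unreached endpoints set to highest concentration. The concentration for 50% growth inhibition is given as GI50. The concentration for full growth arrest is given as TGI.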 Residues, ends and D or L forms follow the SMILES beside them. *: point of attachment. Cbz = O=C(OCc1ccccc1)*
How the values were obtained:
Assay in all cases: NCI anticancer screen, dose series, 48 h
[1] = test system: SF-539 CNS
[2] = test system: NCI-H23 lung
[3] = test system: SK-MEL-5 melanoma
[4] = test system: BT-549 breast
[5] = test system: SF-295 CNS
[6] = test system: CCRF-CEM leukemia
[7] = test system: A498 renal
[8] = test system: NCI-H522 lung
[9] = test system: ACHN renal
[10] = test system: K-562 leukemia

SMILES	GI50 [1]	TGI [1]	GI50 [2]	TGI [2] [µM]	GI50 [3]	TGI [3]	GI50 [4]	TGI [4]	GI50 [5]	TGI [5]	GI50 [6] [nM]	TGI [6] [µM]	GI50 [7]	TGI [7]	GI50 [8] [nM]	TGI [8] [µM]	GI50 [9]	TGI [9] [µM]	GI50 [10] [nM]	TGI [10] [µM]
Cc1cccc(Cl)c1NC(=O)c1cnc(Nc2cc(N3CCOCC3)cc(S(C)(=O)=O)c2)s1	306 nM	> 10 µM	> 10 µM	> 10	> 8890 nM	> 10 µM	9.75 µM	> 10 µM	> 4230 nM	> 10 µM	> 10000	> 10	254 nM	2.39 µM	264	> 10	364 nM	> 7.11	5.69	> 10
CC(C)Cc1ccc(C(C)C(=O)NCc2ccc(Cn3c(=O)sn(CCCI)c3=O)cc2)cc1 (centres undefined)	804 nM	2.08 µM	1.32 µM	2.79	1460 nM	2.78 µM	0.571 µM	1.81 µM	1560 nM	3.08 µM	279	> 100	1430 nM	2.75 µM	309	1.04	233 nM	0.633	388	> 100
COc1cc(/C=C/C(=O)c2c(-c3ccc(F)cc3)nc3sc(C)nn23)cc(OC)c1OC	2090 nM	4.54 µM	2.98 µM	9.55	1860 nM	3.99 µM	2.55 µM	7.09 µM	4030 nM	15.9 µM	2000	5.95	2300 nM	7.23 µM	1550	3.19	1930 nM	4.6	2610	15
NC(=O)c1cc(Br)ccc1NC(=O)/C=C/c1ccccc1	1240 nM	8.57 µM	10.8 µM	> 100	608 nM	> 60.2 µM	4.97 µM	28.7 µM	1330 nM	> 20.3 µM	803	9.97	1660 nM	11.7 µM	981	22	6450 nM	> 100	829	> 34.4
Cc1ccc(OCCOCCOCCOCCOCCOc2ccc(C)n(O)c2=S)c(=S)n1O	60.6 nM	15.1 µM	0.08 µM	> 100	49.7 nM	2.89 µM	0.103 µM	> 64.5 µM	37.8 nM	> 43.6 µM	50.4	> 100	149 nM	3.88 µM	38.6	> 100	49.4 nM	> 87.2	38.3	> 100
NC(N)=N/N=C/c1c(-c2cccnc2)nc2sc(Cl)cn12	13400 nM	26.3 µM	16.1 µM	31.7	15200 nM	28.6 µM	16.3 µM	32.4 µM	13800 nM	28.1 µM	6660	23.9	20600 nM	37.6 µM	30600	> 100	10300 nM	21.9	19100	43.3
COc1ccc2c(c1)C(c1cc(OC)c3c(c1)OCO3)C1=C(COC1=O)N2 (centres undefined)	318 nM	–	0.346 µM	> 64.9	262 nM	1.9 µM	2.08 µM	> 100 µM	91.9 nM	> 34 µM	382	> 100	105 nM	1.48 µM	39	0.232	1570 nM	> 100	264	> 100
Cc1ccccc1C(C(=O)NC1CCCCC1)N(C(=O)CNc1ccc(C#N)cc1)c1cccc(F)c1 (centres undefined)	16200 nM	> 59.7 µM	25.1 µM	> 77.6	> 71200 nM	> 100 µM	32.5 µM	> 100 µM	13800 nM	44.6 µM	> 100000	> 100	24000 nM	74.4 µM	14300	> 100	11700 nM	> 100	> 95700	> 100
O=C1c2c(Cl)c(Cl)c(Cl)c(Cl)c2C(=O)C2(Cl)CC=CCC12Cl (centres undefined)	2060 nM	4.05 µM	1.84 µM	3.94	1770 nM	3.79 µM	1.85 µM	3.38 µM	3350 nM	11.2 µM	1760	7.28	12700 nM	25.3 µM	1760	3.52	1890 nM	3.37	1090	3.59
CC(C)C[C@@H](C=O)NC(=O)[C@H](CC(C)C)NC(=O)[C@H](CC(C)C)NC(=O)OCc1ccccc1 (Cbz-Leu-Leu-Leu-aldehyde)	256 nM	0.703 µM	0.422 µM	2.99	349 nM	1.08 µM	0.337 µM	1.25 µM	390 nM	1.77 µM	378	64.2	424 nM	2.22 µM	212	0.614	357 nM	1.98	368	> 100
Oc1ccccc1/C=N\NC(=S)N/N=C/c1ccccc1O	3260 nM	34.3 µM	3.91 µM	> 100	1690 nM	8.53 µM	13.9 µM	> 100 µM	249 nM	0.987 µM	648	> 100	3660 nM	21.9 µM	5760	36.5	1770 nM	> 100	1590	> 100
CN(C)CCS(=O)(=O)Nc1cc(-c2ccc3ncc(C#N)c(Nc4ccc(F)c(Cl)c4)c3c2)cnc1Cl	212 nM	1.17 µM	0.159 µM	0.469	118 nM	0.244 µM	0.107 µM	0.485 µM	366 nM	2.4 µM	110	8.46	144 nM	0.344 µM	202	0.883	546 nM	> 100	229	> 50.5
CNC(=O)c1cccc(C#Cc2cncnc2Nc2ccc(OCc3cccc(F)c3)c(Cl)c2)c1	4390 nM	9.69 µM	7.5 µM	24.2	5800 nM	> 20.7 µM	8.56 µM	> 25 µM	5450 nM	20.5 µM	> 25000	> 25	1840 nM	10.9 µM	5290	> 25	4180 nM	24.9	9700	> 25
C=CC(=O)N1CC[C@H](n2nc(C#Cc3cc(OC)cc(OC)c3)c3c(N)ncnc32)C1	2600 nM	65.9 µM	17.5 µM	> 100	9570 nM	67.8 µM	1.05 µM	9.56 µM	15500 nM	> 100 µM	4570	> 100	–	1.6 µM	7560	37.9	3760 nM	> 100	13200	> 100
COc1ccc(Cn2cc3c(c2-c2cc(OC)c(OC)c(OC)c2)CCc2c(CO)noc2-3)cc1	213 nM	0.658 µM	0.612 µM	42.1	334 nM	11.9 µM	0.608 µM	7.34 µM	225 nM	15.2 µM	347	23.7	187 nM	3.03 µM	206	12.2	659 nM	45	313	> 100
Cn1c(=O)c(Oc2ccc(F)cc2F)cc2cnc(NC3CCOCC3)nc21	> 25000 nM	> 25 µM	> 25 µM	> 25	> 25000 nM	> 25 µM	> 25 µM	> 25 µM	> 25000 nM	> 25 µM	> 25000	> 25	5000 nM	> 25 µM	> 25000	> 25	> 25000 nM	> 25	> 25000	> 25
O=C1CC(CC(OCc2ccccc2)C(OCc2ccccc2)C(COCc2ccccc2)OCc2ccccc2)CC(=O)N1 (centres undefined)	> 100000 nM and 16800 nM	> 100 µM and 35.5 µM	> 100 µM and 18.6 µM	> 100	> 100000 nM and 12600 nM	> 100 µM and 25.6 µM	> 100 µM and 12.6 µM	> 100 µM and 25.3 µM	> 100000 nM and 11200 nM	> 100 µM and 28.4 µM	–	> 100	> 100000 nM and 21700 nM	> 100 µM and 89 µM	–	–	> 100000 nM and 18200 nM	> 100	–	> 100
COC(=O)CNc1nc(N(C)O)nc(N(C)O)n1	3480 nM	> 100 µM	11.5 µM	> 100	2200 nM	15.9 µM	13.8 µM	> 100 µM	2920 nM	> 100 µM	697	> 100	20300 nM	> 100 µM	3730	> 100	1350 nM	> 100	2430	> 100
